Key:
[1] = test system: S. mutans (ATCC 25175) biofilm; test: Detachment study of S. mutans biofilm on monomer-coated polymeric substrates (Example 1); assay type: cell-based, Streptococcus mutans; conditions: for detachment of S. mutans biofilm (CFU removed): 50 mg/mL coating solution, light/wash treatment
Protocol: The polymeric substrates were prepared by mixing 54 wt % methyl methacrylate (MMA), 30 wt % polymethylmethacrylate (PMMA, MW ˜35 k), and 16 wt % tetraethylene glycol dimethacrylate (TEGDMA) at 70° C. for 2 hr. After mixing, 1 wt. % azobisisobutyronitrile (AIBN) was added to the formulation as an initiator and mixed.
The mixed formulation was added to circular molds (diameter=6.5 mm) cut from a strip of rubber (thickness=0.9 mm) and pressed between two glass microscope slides. The mold was clamped together and thermally cured at 80° C. for 1.5 hr.
The polymeric substrates were coated as follows. Coating solutions were prepared having the following monomer concentrations (see FIG. 3 for structures of the monomers): 0.5 mg/mL and 50 mg/mL solutions of a phenolic acrylated azobenzene monomer (OH-AAZO), 50 mg/mL acrylated azobenzene monomer (AAZO), 50 mg/mL 4-hydroxyl benzylacrylate (HBA), 50 mg/mL 2-hydroxylethyl methacrylate (HEMA).
The coating solutions included the monomer in N,N′-dimethylformamide (DMF) along with 0.5 mg/mL of AIBN and 0.1 mg/mL of Rhodamine B as an indicator dye. Once mixed, 3 μL of each coating solution was pipetted onto one side of the polymeric substrate and spun at 1000 RPM for 1 min followed by spinning at 6000 RPM for 3 s. The coating was cured under a nail lamp (Melody Susie UV Gel Nail Polish Dryer, Model DR-301C) for at least 15 min before repeating the coating procedure on the other side.
The controlled growth of biofilms varied depending on the bacteria strain. In the case of S. mutans, a BHI agar plate was streaked with S. mutans (ATCC 25175) and allowed to incubate at 37° C. in 5% CO2 for 60 hr to isolate a single bacterial colony. The colony was inoculated in 5 mL of BHI and allowed to incubate statically in the 5% CO2 incubator for 24 hr. The stock solution was diluted 1:50 in a 96-well plate containing the substrates of interest and allowed to incubate in the 5% CO2 incubator for an additional 24 hr.
The detachment study quantified the biofilm grown on each substrate via a series of washes in 1×PBS. The substrate was irradiated using a dental lamp (FlashMax P3 Ortho™, 1900 mW/cm2, wavelength=450-470 nm) on the underside of the vial for a total of ten 3 s irradiations per side. Following the series of washes, the substrate was sonicated for 10 min to remove the residual biofilm on the substrate. The wash solutions were serial diluted, plated, and grown at 37° C. and 5% CO2 to obtain the CFU count.
Images collected from a digital microscope (Zeiss Axioplan II microscope, 630×, step size 0.1 μm) after the substrate and bacteria were treated with BACLIGHT Live/Dead stain are included in FIG. 4.

[2] = test system: S. mutans biofilm; test: S. mutans biofilm growth on coated pit and fissure dental sealants; assay type: cell-based, Streptococcus mutans; conditions: coating on pit and fissure sealants
Text: In some implementations, the azobenzene polymers can be used as an antimicrobial coating on pit and fissure dental sealants. […] Azobenzene coatings can be incorporated into pit and fissure sealants as an anti-bacterial coating to prevent tooth decay.

Compound	detachment of S. mutans biofilm (CFU removed) [1]	S. mutans biofilm on substrate, Live/Dead stain microscopy ([1]; after wash/light treatment)	S. mutans biofilm growth [2]
C=C(C)C(=O)OCCO [HEMA, 2-hydroxylethyl methacrylate]	minimal detachment	–	–
Acrylated azobenzene [AAZO]	minimal detachment	still contained a robust S. mutans biofilm	significantly reduced
C=CC(=O)OCc1ccc(O)cc1 [HBA, 4-hydroxybenzyl acrylate]	minimal detachment	–	–

From patent publication US12661308B2, “Antimicrobial AZO compounds and uses thereof” (The Regents Of The University Of Colorado, A Body Corporate, priority 2019, dated 2026)
